Test [1] in a line: Cytotoxicity against human H460 cells after 72 hrs by MTT assay. Particulars: NCI-H460, 72 h. On the technique in general: Formazan colour is commonly taken as a measure of viable cells.
Test [2] is described as follows: Cytotoxicity against human MKN45 cells after 72 hrs by MTT assay. Particulars: MKN-45, 72 h.
Another test relates to HT-29. Kind of test: Cytotoxicity against human HT-29 cells after 72 hrs by MTT assay. Particulars: HT-29, 72 h.
The test system of another test is MDA-MB-231. Kind of test: cells. The note with it: Homo sapiens, MDA-MB-231, 72 h.

A word on the IC50: it is the concentration that gives 50% inhibition. Read a low IC50 as inhibition by little substance.

Description for MDA-MB-231: Cytotoxicity against human MDA-MB-231 cells after 72 hrs by MTT assay

Consider `COc1ccc(-n2nc(C(=O)Nc3ccc(Oc4ccnc5cc(OCCCN6CCN(C)CC6)c(OC)cc45)c(F)c3)c3ccccc3c2=O)cc1`, for which the IC50 is 1110 nM in test [1], 1320 nM in test [2], 3700 nM in the test on HT-29 and 3980 nM with MDA-MB-231.
`COc1cc2c(Oc3ccc(NC(=O)c4nn(-c5ccc(Br)cc5)c(=O)c5ccccc45)cc3F)ccnc2cc1OCCCN1CCN(C)CC1`: the half-maximal inhibitory concentration (IC50) in test [1] was 250 nM; in test [2] it was 350 nM; in the test with HT-29, 850 nM; with MDA-MB-231 it was 1370 nM.
For `COc1cc2c(Oc3ccc(NC(=O)c4nn(-c5ccccc5Br)c(=O)c5ccccc45)cc3F)ccnc2cc1OCCCN1CCOCC1` the same measures were 370 nM, 450 nM, 680 nM and 1560 nM.
Consider `COc1cc2c(Oc3ccc(NC(=O)c4nn(-c5ccc(F)cc5)c(=O)c5ccccc45)cc3F)ccnc2cc1OCCCN1CCC(C)CC1`, for which the IC50 in test [1] worked out at 110 nM; in test [2], 130 nM; with HT-29 it was 330 nM; with MDA-MB-231, 660 nM.
Taken in the same sequence, the figures for `COc1cc2c(Oc3ccc(NC(=O)c4nn(-c5ccccc5Br)c(=O)c5ccccc45)cc3F)ccnc2cc1OCCCN1CCCC1` were 320 nM, 410 nM, 850 nM and 1020 nM.
For `COc1cc2c(Oc3ccc(NC(=O)c4nn(-c5ccccc5F)c(=O)c5ccccc45)cc3F)ccnc2cc1OCCCN1CCCCC1` the same measures were 160 nM, 350 nM, 630 nM and 910 nM.
Regarding `COc1ccc(-n2nc(C(=O)Nc3ccc(Oc4ccnc5cc(OCCCN6CCCCC6)c(OC)cc45)c(F)c3)c3ccccc3c2=O)cc1`, the IC50 worked out at 840 nM in test [1], 950 nM in test [2], 1450 nM in the test on HT-29 and 2010 nM with MDA-MB-231.
`COc1cc2c(Oc3ccc(NC(=O)c4nn(-c5ccccc5)c(=O)c5ccccc45)cc3F)ccnc2cc1OCCCN1CCCC1`: the figures for the IC50 (in test [2]; in the test with HT-29) were 530 nM and 980 nM, respectively.
Take `COc1cc2c(Oc3ccc(NC(=O)c4nn(-c5ccccc5F)c(=O)c5ccccc45)cc3F)ccnc2cc1OCCCN1CCN(C)CC1`: the IC50 in test [1] came out at 230 nM; in test [2], 210 nM; in the test with HT-29, 480 nM; with MDA-MB-231, 1050 nM.
Consider `COc1cc2c(Oc3ccc(NC(=O)c4nn(-c5ccccc5)c(=O)c5ccccc45)cc3F)ccnc2cc1OCCCN1CCOCC1`, for which the IC50 in test [1] is 580 nM; in test [2], 430 nM; with HT-29, 1380 nM; in the test on MDA-MB-231 it was 1230 nM.
For `COc1cc2c(Oc3ccc(NC(=O)c4nn(-c5ccc(Br)cc5)c(=O)c5ccccc45)cc3F)ccnc2cc1OCCCN1CCCCC1` the same measures were 410 nM, 500 nM, 770 nM and 1130 nM.
Consider `COc1cc2c(Oc3ccc(NC(=O)c4nn(-c5ccccc5)c(=O)c5ccccc45)cc3F)ccnc2cc1OCCCN1CCN(C)CC1`, for which the IC50 in test [1] worked out at 450 nM; in test [2], 620 nM; in the test on HT-29 it was 1140 nM; with MDA-MB-231 it was 1580 nM.
On to `COc1cc2c(Oc3ccc(NC(=O)c4nn(-c5ccc(F)cc5)c(=O)c5ccccc45)cc3F)ccnc2cc1OCCCN1CCN(C)CC1`, for which the IC50 in test [2] amounted to 150 nM; in the test on HT-29, 320 nM.
In the case of `COc1cc2c(Oc3ccc(NC(=O)c4nn(-c5ccccc5F)c(=O)c5ccccc45)cc3F)ccnc2cc1OCCCN1CCCC1`, the IC50 amounted to 140 nM in test [2] and 400 nM with HT-29.
For `COc1cc2c(Oc3ccc(NC(=O)c4nn(-c5cccc(F)c5)c(=O)c5ccccc45)cc3F)ccnc2cc1OCCCN1CCCC1`, the IC50 in test [2] came out at 160 nM; in the test on HT-29, 460 nM.
Taken in the same sequence, the figures for `COc1cc2c(Oc3ccc(NC(=O)c4nn(-c5ccc(F)cc5)c(=O)c5ccccc45)cc3F)ccnc2cc1OCCCN1CCCCC1` were 180 nM and 290 nM.

Source of the values: ChEMBL document CHEMBL3352619, “Design, synthesis and biological evaluation of novel 6,7-disubstituted-4-phenoxyquinoline derivatives bearing 4-oxo-3,4-dihydrophthalazine-1-carboxamide moieties as c-Met kinase inhibitors” (Bioorg Med Chem, 2014).
